The results in this text go back to patent US10793575B2, “Oxoisoquinoline derivatives” (CARNA BIOSCIENCES, INC., priority 2016, dated 2020).

In one test the test system is OCI-Ly10 cells. The test can be described thus: Proliferation-Inhibitory Test Against Diffuse Large-Cell B-Cell Lymphoma OCI-Ly10 Strain. To be noted: Homo sapiens, 96 hours, alamarBlue. The test is classed as cell-based. A digest of the protocol: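 Proliferation was read by alamarBlue after a 96-hour incubation. Final compound concentrations spanned 0.9 nM to 30000 nM with 0.3% DMSO. Cells were seeded at 20000 per well in IMDM containing 20% fetal bovine serum under 5% CO2.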
(Alamar Blue is a resazurin reagent that responds to reducing activity.)

A further test deals with wild type BTK [BTK(WT)] (Homo sapiens (Human), UniProt Q06187). The test can be described thus: C481S Mutant BTK Inhibitory Activity Test, wild type BTK (mobility shift assay). The format is biochemical. The following applies: 120 μM ATP. How it is done:
(§1) The kinase activity was measured using QuickScout Screening Assist (trademark) MSA (commercially available kit manufactured by Carna Biosciences, Inc.) by mobility shift assay (MSA) method. The substrate of the kinase reaction was an FITC-labeled SRCtide peptide included in the kit. […] The 10 mM solution of the test compound in DMSO was further diluted with DMSO to 10 levels of the concentration (0.00003 mM, 0.0001 mM, 0.0003 mM, 0.001 mM, 0.003 mM, 0.01 mM, 0.03 mM, 0.1 mM, 0.3 mM, 1 mM), each of which was subjected to a 25-fold dilution with the assay buffer to obtain the drug solutions (4% DMSO solutions).
(§2) 5 μL of the drug solution or a control solution (4% DMSO-assay buffer), 5 μL of the substrate mixture solution, and 10 μL of the enzyme solution were mixed in the wells of a polypropylene 384-well plate and allowed to react at room temperature for 1 hour, and then quenched by adding 60 μL of the termination buffer included in the kit. Subsequently, the quantities of the substrates (S) and the phosphorylated substrate (P) in the reaction solution were measured using LabChip EZ Reader II system (manufactured by Caliper Life Sciences) according to the protocol of the assay kit.
(§3) The heights of the peaks of the isolated substrate and the phosphorylated substrate were represented as S and P, respectively, and a blank which contained the assay buffer instead of the enzyme solution was also measured.
(§4) The inhibition rate (%) of the test compound was calculated according to the following equation; Inhibition rate (%)=(1−(C−A)/(B−A))×100 • wherein, A, B and C represent P/(P+S) of the blank well, P/(P+S) of the control well and P/(P+S) of the compound-containing well, respectively.
(§5) The IC50 value was calculated via a regression analysis of the inhibition rate (%) and the test compound concentration (logarithmic value).

For test [1], the target named is C481S mutant BTK [BTK(C481S)] (Homo sapiens (Human), UniProt Q06187, C481S). The test can be described thus: C481S Mutant BTK Inhibitory Activity Test (mobility shift assay). The format is biochemical. The following applies: for IC50: C481S mutant BTK, 100 μM ATP; for C481S mutation-resistance: IC50[BTK(C481S)]/IC50[BTK(WT)]. The method, then: as §1, §2, §3, §4, §5

For a further test, the target named is dephosphorylated BTK (Homo sapiens (Human), UniProt Q06187). The test can be described thus: BTK Activity Inhibition Test (mobility shift assay). The format is biochemical. To be noted: 200 μM ATP, read-out: Inhibitory Activity on BTK. How it is done: Dephosphorylated BTK was obtained by adding λ protein phosphatase (manufactured by New England BioLabs Inc., Code No. P0753S) and MnCl2 at 10 U/μg and 2 mM, respectively, to biotinylated BTK protein BTN-BTK (Manufactured by Carna Biosciences, Inc.) enzyme solution, reacting the mixture at 4° C. overnight, and removing of λ protein phosphatase by anti […]-tag antibody agarose gel chromatography, followed by buffer exchange using a 10DG Desalting Column.
The kinase activity was measured using QuickScout Screening Assist (trade mark) MSA (commercially available kit manufactured by Carna Biosciences, Inc.) by mobility shift assay (MSA) method. The substrate of the kinase reaction was an FITC-labeled SRCtide peptide included in the kit. An assay buffer [20 mM HEPES, 0.01% Triton X-100 (Trade mark), 2 mM dithiothreitol, pH 7.5] was used and adjusted at 4 μM substrate, 20 mM MgCl2 and 200 μm ATP to obtain a substrate mixture solution. The enzyme solution was also prepared by diluting the dephosphorylated BTK to 0.46 nM using the assay buffer. The 10 mM solution of the test compound in DMSO was further diluted with DMSO to 10 levels of the concentration (0.00003 mM, 0.0001 mM, 0.0003 mM, 0.001 mM, 0.003 mM, 0.01 mM, 0.03 mM, 0.1 mM, 0.3 mM, 1 mM), each of which was subjected to a 25-fold dilution with the assay buffer to obtain the drug solutions (4% DMSO solutions). 5 μL of the drug solution or a control solution (4% DMSO-assay buffer), 5 μL of the substrate mixture solution, and 10 μL of the enzyme solution were mixed in the wells of a polypropylene 384-well plate and allowed to react at room temperature for 2 hours, and then quenched by adding 60 μL of the termination buffer included in the kit. Subsequently, the quantities of the substrates (S) and the phosphorylated substrate (P) in the reaction solution were measured using LabChip EZ Reader II system (manufactured by Caliper Life Sciences) according to the protocol of the assay kit.
as §3, §4, §5

wild type BTK [BTK(WT)], sequence (Q06187 whole entry): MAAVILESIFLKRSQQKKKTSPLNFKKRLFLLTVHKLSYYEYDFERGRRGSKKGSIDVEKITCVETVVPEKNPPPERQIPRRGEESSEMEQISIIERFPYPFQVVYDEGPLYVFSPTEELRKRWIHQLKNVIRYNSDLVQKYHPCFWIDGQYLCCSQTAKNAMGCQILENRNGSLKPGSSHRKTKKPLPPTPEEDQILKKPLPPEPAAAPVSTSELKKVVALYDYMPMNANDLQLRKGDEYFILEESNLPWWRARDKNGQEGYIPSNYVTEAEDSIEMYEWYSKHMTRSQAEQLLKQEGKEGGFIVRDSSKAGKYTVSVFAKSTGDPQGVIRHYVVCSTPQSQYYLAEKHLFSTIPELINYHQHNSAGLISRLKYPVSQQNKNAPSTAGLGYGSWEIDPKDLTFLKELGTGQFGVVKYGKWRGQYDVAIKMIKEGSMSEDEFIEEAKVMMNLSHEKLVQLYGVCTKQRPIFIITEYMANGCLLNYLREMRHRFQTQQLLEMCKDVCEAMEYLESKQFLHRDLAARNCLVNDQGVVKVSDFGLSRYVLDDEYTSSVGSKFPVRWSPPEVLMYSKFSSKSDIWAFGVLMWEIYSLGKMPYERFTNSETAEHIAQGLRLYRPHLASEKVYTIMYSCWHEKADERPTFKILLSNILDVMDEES
C481S mutant BTK [BTK(C481S)], sequence (Q06187 whole entry C481S): as the sequence (Q06187 whole entry) above, with C481S counted along it
dephosphorylated BTK, sequence (Q06187 whole entry): as the sequence (Q06187 whole entry) above

With `Nc1nc(-c2cccc(-n3ccc4cc(C5CC5)cc(F)c4c3=O)c2CO)c2cc(-c3ccnc(F)c3)[nH]c2n1` [Example 43, 2-{3-[2-amino-6-(2-fluoropyridin-4-yl)-7H-pyrrolo[2,3-d]pyrimidin-4-yl]-2-(hydroxymethyl)phenyl}-6-cyclopropyl-8-fluoroisoquinolin-1(2H)-one], the IC50 in the test on OCI-Ly10 cells was 194 nM; on wild type BTK [BTK(WT)], 1.11 nM; in test [1] it was 1.72 nM; at dephosphorylated BTK, below 10 nM. The C481S mutation-resistance in test [1] is reported as 1.5.

Consider `Nc1nc(-c2cccc(-n3ccc4cc(C5CC5)cc(F)c4c3=O)c2CO)c2cc(-c3cccc(F)n3)[nH]c2n1` [Example 42, 2-{3-[2-amino-6-(6-fluoropyridin-2-yl)-7H-pyrrolo[2,3-d]pyrimidin-4-yl]-2-(hydroxymethyl)phenyl}-6-cyclopropyl-8-fluoroisoquinolin-1(2H)-one], for which the IC50 was 97 nM in the test on OCI-Ly10 cells, 0.87 nM on wild type BTK [BTK(WT)], 1.06 nM in test [1] and below 10 nM on dephosphorylated BTK. The C481S mutation-resistance in test [1] was 1.2.

For `Nc1nc(-c2cccc(-n3ccc4cc(C5CC5)cc(F)c4c3=O)c2CO)c2cc(C3=CCS(=O)(=O)CC3)[nH]c2n1` [Example 83, 2-{3-[2-amino-6-(1,1-dioxido-3,6-dihydro-2H-thiopyran-4-yl)-7H-pyrrolo[2,3-d]pyrimidin-4-yl]-2-(hydroxymethyl)phenyl}-6-cyclopropyl-8-fluoroisoquinolin-1(2H)-one], the IC50 with OCI-Ly10 cells worked out at 8 nM; on wild type BTK [BTK(WT)], 0.25 nM; in test [1], 0.58 nM. The C481S mutation-resistance in test [1] came out at 2.3.

With `Nc1nc(-c2cccc(-n3ccc4cc(C5CC5)cc(F)c4c3=O)c2CO)c2cc(-c3ccc(CN4CCCCC4)cc3)[nH]c2n1` [Example 54, 2-(3-{2-amino-6-[4-(piperidin-1-ylmethyl)phenyl]-7H-pyrrolo[2,3-d]pyrimidin-4-yl}-2-(hydroxymethyl)phenyl)-6-cyclopropyl-8-fluoroisoquinolin-1(2H)-one], the IC50 stood at 17 nM with OCI-Ly10 cells, 0.58 nM on wild type BTK [BTK(WT)] and 0.86 nM in test [1]. Moreover, in test [1], the C481S mutation-resistance was 1.5.

In the case of `Nc1nc(-c2cccc(-n3ccc4cc(C5CC5)cc(F)c4c3=O)c2CO)c2cc(-c3ccc(CN4CCN(CCO)CC4)cc3)[nH]c2n1` [Example 61, 2-{3-[2-amino-6-(4-{[4-(2-hydroxyethyl)piperazin-1-yl]methyl}phenyl)-7H-pyrrolo[2,3-d]pyrimidin-4-yl]-2-(hydroxymethyl)phenyl}-6-cyclopropyl-8-fluoroisoquinolin-1(2H)-one], the IC50 was found to be 5 nM in the test with OCI-Ly10 cells, 0.36 nM at wild type BTK [BTK(WT)] and 0.57 nM in test [1]. In test [1], the C481S mutation-resistance came to 1.6.

Consider `CCC(=O)N1CC=C(c2cc3c(-c4cccc(-n5ccc6cc(C7CC7)cc(F)c6c5=O)c4CO)nc(N)nc3[nH]2)CC1` [Example 84, 2-{3-[2-amino-6-(1-propionyl-1,2,3,6-tetrahydropyridin-4-yl)-7H-pyrrolo[2,3-d]pyrimidin-4-yl]-2-(hydroxymethyl)phenyl}-6-cyclopropyl-8-fluoroisoquinolin-1(2H)-one], for which the IC50 in the test on OCI-Ly10 cells stood at 6 nM; at wild type BTK [BTK(WT)], 0.41 nM; in test [1], 0.82 nM. Further, in test [1], the C481S mutation-resistance is reported as 2.

As to `CCN(CC)Cc1ccc(-c2cc3c(-c4cccc(-n5ccc6cc(C7CC7)cc(F)c6c5=O)c4CO)nc(N)nc3[nH]2)cc1` [Example 52, 2-[3-(2-amino-6-{4-[(diethylamino)methyl]phenyl}-7H-pyrrolo[2,3-d]pyrimidin-4-yl)-2-(hydroxymethyl)phenyl]-6-cyclopropyl-8-fluoroisoquinolin-1(2H)-one], the results for the IC50 (in the test with OCI-Ly10 cells; on wild type BTK [BTK(WT)]; in test [1]) were 15 nM, 0.43 nM and 0.76 nM, respectively. Besides, the C481S mutation-resistance in test [1] is given as 1.8.

As for `CN(C)Cc1ccc(-c2cc3c(-c4cccc(-n5ccc6cc(C7CC7)cc(F)c6c5=O)c4CO)nc(N)nc3[nH]2)cc1` [Example 51, 2-[3-(2-amino-6-{4-[(dimethylamino)methyl]phenyl}-7H-pyrrolo[2,3-d]pyrimidin-4-yl)-2-(hydroxymethyl)phenyl]-6-cyclopropyl-8-fluoroisoquinolin-1(2H)-one], the IC50 in the test on OCI-Ly10 cells is 10 nM; on wild type BTK [BTK(WT)], 0.43 nM; in test [1], 0.78 nM. In addition, the C481S mutation-resistance in test [1] is 1.8.

Regarding `Nc1nc(-c2cccc(-n3ccc4cc(C5CC5)cc(F)c4c3=O)c2CO)c2cc(-c3ccc(CN4CCNC(=O)C4)cc3)[nH]c2n1` [Example 66, 2-[3-(2-amino-6-{4-[(3-oxopiperazin-1-yl)methyl]phenyl}-7H-pyrrolo[2,3-d]pyrimidin-4-yl)-2-(hydroxymethyl)phenyl}-6-cyclopropyl-8-fluoroisoquinolin-1(2H)-one], the IC50 in the test with OCI-Ly10 cells is 18 nM; on wild type BTK [BTK(WT)], 0.47 nM; in test [1], 0.93 nM. Moreover, in test [1], the C481S mutation-resistance amounted to 2.

On to `CCN1CC=C(c2cc3c(-c4cccc(-n5ccc6cc(C7CC7)cc(F)c6c5=O)c4CO)nc(N)nc3[nH]2)CC1` [Example 91, 2-{3-[2-amino-6-(1-ethyl-1,2,3,6-tetrahydropyridin-4-yl)-7H-pyrrolo[2,3-d]pyrimidin-4-yl]-2-(hydroxymethyl)phenyl}-6-cyclopropyl-8-fluoroisoquinolin-1(2H)-one], for which the IC50 in the test with OCI-Ly10 cells amounted to 38 nM; at wild type BTK [BTK(WT)], 0.47 nM; in test [1] it was 1.1 nM. Also, in test [1], the C481S mutation-resistance is reported as 2.1.

`Nc1nc(-c2cccc(-n3ccc4cc(C5CC5)cc(F)c4c3=O)c2CO)c2cc(C3=CCN(C(=O)N4CCCC4)CC3)[nH]c2n1` [Example 88, 2-(3-{2-amino-6-[1-(pyrrolidine-1-carbonyl)-1,2,3,6-tetrahydropyridin-4-yl]-7H-pyrrolo[2,3-d]pyrimidin-4-yl}-2-(hydroxymethyl)phenyl)-6-cyclopropyl-8-fluoroisoquinolin-1(2H)-one]: the IC50 worked out at 7 nM in the test with OCI-Ly10 cells, 0.94 nM on wild type BTK [BTK(WT)] and 1.49 nM in test [1]. The C481S mutation-resistance in test [1] worked out at 1.6.

Consider `Nc1nc(-c2cccc(-n3ccc4cc(C5CC5)cc(F)c4c3=O)c2CO)c2cc(-c3ccc(CN4CCCC4)cc3)[nH]c2n1` [Example 53, 2-(3-{2-amino-6-[4-(pyrrolidin-1-ylmethyl)phenyl]-7H-pyrrolo[2,3-d]pyrimidin-4-yl}-2-(hydroxymethyl)phenyl)-6-cyclopropyl-8-fluoroisoquinolin-1(2H)-one], for which the results for the IC50 (with OCI-Ly10 cells; at wild type BTK [BTK(WT)]; in test [1]) were 25 nM, 0.51 nM and 0.9 nM, respectively. The C481S mutation-resistance in test [1] turned out to be 1.8.

As for `CNc1cc(-c2cc3c(-c4cccc(-n5ccc6cc(C7CC7)cc(F)c6c5=O)c4CO)nc(N)nc3[nH]2)ccn1` [Example 50, 2-(3-{2-amino-6-[2-(methylamino)pyridin-4-yl]-7H-pyrrolo[2,3-d]pyrimidin-4-yl}-2-(hydroxymethyl)phenyl)-6-cyclopropyl-8-fluoroisoquinolin-1(2H)-one], the IC50 in the test on OCI-Ly10 cells stood at 52 nM; at wild type BTK [BTK(WT)], 0.77 nM; in test [1], 1.6 nM. Besides, in test [1], the C481S mutation-resistance is reported as 2.1.
